Measurements as given in ChEMBL document CHEMBL1125043, “Synthesis and biological activity of an acyclic analogue of 5,6,7,8-tetrahydrofolic acid, N-[4-[[3-(2,4-diamino-1,6-dihydro-6-oxo-5- pyrimidinyl)propyl]amino]-benzoyl]-L-glutamic acid” (J Med Chem, 1990).

Tests used:
[1] = biological target: T1, Bifunctional purine biosynthesis protein ATIC (Mus musculus, UniProt Q9CWJ9); experiment: Hexaglutamyl homologue inhibition activity against the AICAR formyltransferase was determined against L cell; assay type: cell-based
T1 sequence (Q9CWJ9 whole entry): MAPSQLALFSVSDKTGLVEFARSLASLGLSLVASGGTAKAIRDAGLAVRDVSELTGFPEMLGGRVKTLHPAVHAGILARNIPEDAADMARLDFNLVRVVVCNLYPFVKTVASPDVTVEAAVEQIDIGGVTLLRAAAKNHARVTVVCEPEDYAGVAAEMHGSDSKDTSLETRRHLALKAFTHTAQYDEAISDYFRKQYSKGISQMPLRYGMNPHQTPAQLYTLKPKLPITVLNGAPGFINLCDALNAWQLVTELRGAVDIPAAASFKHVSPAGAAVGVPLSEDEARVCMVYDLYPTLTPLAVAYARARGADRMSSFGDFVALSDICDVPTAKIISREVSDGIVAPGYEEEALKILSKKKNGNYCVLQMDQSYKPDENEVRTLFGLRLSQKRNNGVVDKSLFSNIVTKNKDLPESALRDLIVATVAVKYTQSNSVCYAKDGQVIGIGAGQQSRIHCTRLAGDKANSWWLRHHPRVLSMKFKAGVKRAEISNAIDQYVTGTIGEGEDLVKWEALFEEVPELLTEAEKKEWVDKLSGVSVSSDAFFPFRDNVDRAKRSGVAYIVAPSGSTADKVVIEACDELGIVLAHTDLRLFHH

[2] = biological target: T1, Bifunctional purine biosynthesis protein ATIC; experiment: Inhibition activity against AICAR formyltransferase determined against L cell; assay type: cell-based
[3] = biological target: T1, Bifunctional purine biosynthesis protein ATIC; experiment: Triglutamyl homologue inhibition activity against AICAR formyltransferase was determined against L cell; assay type: cell-based
[4] = biological target: T2, Bifunctional purine biosynthesis protein ATIC (Homo sapiens, UniProt P31939); experiment: Hexaglutamyl homologue inhibition activity against the AICAR formyltransferase was determined against MOLT-4; assay type: cell-based
T2 sequence (P31939 whole entry): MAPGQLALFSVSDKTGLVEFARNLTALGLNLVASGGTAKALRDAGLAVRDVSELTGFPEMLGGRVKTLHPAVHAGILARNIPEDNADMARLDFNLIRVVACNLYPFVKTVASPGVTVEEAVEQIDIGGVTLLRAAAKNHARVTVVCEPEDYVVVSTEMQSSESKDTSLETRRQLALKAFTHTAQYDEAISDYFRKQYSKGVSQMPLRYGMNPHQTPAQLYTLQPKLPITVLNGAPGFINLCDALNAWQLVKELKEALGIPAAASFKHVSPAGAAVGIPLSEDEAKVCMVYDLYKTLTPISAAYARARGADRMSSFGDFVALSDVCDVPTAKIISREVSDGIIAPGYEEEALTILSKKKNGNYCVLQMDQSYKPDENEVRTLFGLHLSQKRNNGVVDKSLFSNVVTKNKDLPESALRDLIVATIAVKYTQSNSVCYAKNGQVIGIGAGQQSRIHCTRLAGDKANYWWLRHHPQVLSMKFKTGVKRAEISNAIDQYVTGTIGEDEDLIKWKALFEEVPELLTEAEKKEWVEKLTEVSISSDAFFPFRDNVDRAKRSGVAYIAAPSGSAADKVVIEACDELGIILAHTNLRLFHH

[5] = biological target: T2, Bifunctional purine biosynthesis protein ATIC; experiment: Inhibition activity against AICAR formyltransferase determined against MOLT-4; assay type: cell-based
[6] = biological target: T1, Bifunctional purine biosynthesis protein ATIC; experiment: Diglutamyl homologue inhibition activity against the AICAR formyltransferase was determined against L cell; assay type: cell-based
[7] = tested on: L cells; experiment: Evaluated in vitro for ability to inhibit the L cell lines.; assay type: functional, cell-based; settings: Mus musculus, L929
[8] = tested on: Detroit 98; experiment: Evaluated in vitro for ability to inhibit the Detroit 98 cell lines; assay type: functional, cell-based; settings: Homo sapiens
[9] = tested on: L cells; experiment: Evaluated for reversal of L cell inhibition, where reversal of toxicity was evaluated by the addition of Hypoxanthine (37 uM); assay type: functional, Mus musculus, L929
[10] = tested on: L cells; experiment: Evaluated for reversal of L cell inhibition, where reversal of toxicity was evaluated by the addition of Thymidine (20 uM); assay type: functional, Mus musculus, L929
[11] = organism: Sus scrofa; experiment: Apparent Km in uM for its activation for Hog Liver Folyl-polyglutamate synthase was determined
[12] = Ratio of app Km to ral Vmax
[13] = tested on: L cells; experiment: Evaluated for reversal of L cell inhibition, where reversal of toxicity was evaluated by the addition of Leucovorin (0.2 uM); assay type: functional, Mus musculus, L929
[14] = organism: Sus scrofa; experiment: Relative Vmax for its activation for Hog Liver Folyl-polyglutamate synthase was determined
[15] = tested on: L cells; experiment: Evaluated for reversal of L cell inhibition, where reversal of toxicity was evaluated by the addition of Thymidine + Hypoxanthine; assay type: functional, Mus musculus, L929
[16] = biological target: T3, C-1-tetrahydrofolate synthase, cytoplasmic (Mus musculus) (UniProt Q922D8); experiment: Evaluated for inhibitory activity on 5,10-Methylene Tetrahydrofolate Cyclohydrolase(L cell) at folate substrate concentration of 100 uM
T3 sequence (whole entry): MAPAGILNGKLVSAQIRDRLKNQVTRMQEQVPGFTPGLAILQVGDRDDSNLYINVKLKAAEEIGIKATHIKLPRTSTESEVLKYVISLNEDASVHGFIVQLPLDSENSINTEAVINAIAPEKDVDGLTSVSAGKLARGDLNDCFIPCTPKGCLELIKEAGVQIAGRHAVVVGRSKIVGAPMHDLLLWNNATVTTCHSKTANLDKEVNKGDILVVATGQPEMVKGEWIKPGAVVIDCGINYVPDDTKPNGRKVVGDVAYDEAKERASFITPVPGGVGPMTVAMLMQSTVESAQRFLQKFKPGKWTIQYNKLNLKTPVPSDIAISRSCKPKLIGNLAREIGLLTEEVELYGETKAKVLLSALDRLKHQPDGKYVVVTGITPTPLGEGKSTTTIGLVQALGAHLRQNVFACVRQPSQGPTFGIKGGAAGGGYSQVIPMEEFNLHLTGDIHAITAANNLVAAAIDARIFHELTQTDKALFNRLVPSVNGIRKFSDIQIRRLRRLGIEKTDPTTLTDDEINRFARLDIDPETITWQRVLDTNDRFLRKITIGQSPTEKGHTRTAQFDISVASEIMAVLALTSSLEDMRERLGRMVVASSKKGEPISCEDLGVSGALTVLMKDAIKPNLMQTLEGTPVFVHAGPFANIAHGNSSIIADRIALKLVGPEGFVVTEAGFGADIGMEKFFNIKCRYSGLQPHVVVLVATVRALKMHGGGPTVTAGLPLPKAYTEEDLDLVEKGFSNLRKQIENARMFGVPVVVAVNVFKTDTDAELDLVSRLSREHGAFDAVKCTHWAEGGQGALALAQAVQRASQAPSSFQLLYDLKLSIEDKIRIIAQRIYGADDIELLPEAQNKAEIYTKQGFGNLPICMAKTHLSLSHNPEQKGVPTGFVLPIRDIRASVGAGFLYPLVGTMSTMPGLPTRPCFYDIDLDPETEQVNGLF

[17] = biological target: T4, Dihydrofolate reductase (Rattus norvegicus) (UniProt Q920D2); experiment: Evaluated for inhibitory activity on Dihydrofolate reductase(rat liver) at folate substrate concentration of 45 uM
T4 sequence (whole entry): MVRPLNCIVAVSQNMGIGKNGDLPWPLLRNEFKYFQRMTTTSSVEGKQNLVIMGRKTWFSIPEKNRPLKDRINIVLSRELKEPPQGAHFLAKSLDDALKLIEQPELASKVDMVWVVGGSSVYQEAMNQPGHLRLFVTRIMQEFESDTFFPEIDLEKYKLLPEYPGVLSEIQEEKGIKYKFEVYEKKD

[18] = organism: Mus musculus; experiment: Evaluated for inhibitory activity on 10-formyltetrahydrofolate synthetase(L cell) at folate substrate concentration of 100 uM
[19] = biological target: T3, C-1-tetrahydrofolate synthase, cytoplasmic (Mus musculus); experiment: Evaluated for inhibitory activity on 5,10-Methenyl Tetrahydrofolate Cyclohydrolase(L cell) at folate substrate concentration of 100 uM
[20] = biological target: T5, Serine hydroxymethyltransferase, cytosolic (Mus musculus) (UniProt P50431); experiment: Evaluated for inhibitory activity on Serine hydroxymethyl transferase (Lcell) at folate substrate concentration of 160 uM
T5 sequence (whole entry): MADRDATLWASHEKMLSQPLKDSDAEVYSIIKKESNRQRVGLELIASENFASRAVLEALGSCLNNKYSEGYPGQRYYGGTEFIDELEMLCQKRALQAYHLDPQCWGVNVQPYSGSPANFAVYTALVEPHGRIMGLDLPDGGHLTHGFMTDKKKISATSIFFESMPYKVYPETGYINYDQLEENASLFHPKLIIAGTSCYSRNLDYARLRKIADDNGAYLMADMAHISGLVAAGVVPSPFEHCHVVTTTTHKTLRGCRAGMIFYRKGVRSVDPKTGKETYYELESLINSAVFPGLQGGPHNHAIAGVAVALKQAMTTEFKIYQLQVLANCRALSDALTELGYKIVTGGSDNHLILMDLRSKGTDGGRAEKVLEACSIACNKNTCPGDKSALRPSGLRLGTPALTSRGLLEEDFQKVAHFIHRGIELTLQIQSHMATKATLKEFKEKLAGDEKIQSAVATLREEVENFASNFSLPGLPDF

[21] = biological target: Methionine synthase (Mus musculus) (UniProt A6H5Y3); experiment: Evaluated for inhibitory activity on Methionine synthase(L cell) at folate substrate concentration of 100 uM
Sequence of Methionine synthase (Mus musculus) (A6H5Y3 whole entry): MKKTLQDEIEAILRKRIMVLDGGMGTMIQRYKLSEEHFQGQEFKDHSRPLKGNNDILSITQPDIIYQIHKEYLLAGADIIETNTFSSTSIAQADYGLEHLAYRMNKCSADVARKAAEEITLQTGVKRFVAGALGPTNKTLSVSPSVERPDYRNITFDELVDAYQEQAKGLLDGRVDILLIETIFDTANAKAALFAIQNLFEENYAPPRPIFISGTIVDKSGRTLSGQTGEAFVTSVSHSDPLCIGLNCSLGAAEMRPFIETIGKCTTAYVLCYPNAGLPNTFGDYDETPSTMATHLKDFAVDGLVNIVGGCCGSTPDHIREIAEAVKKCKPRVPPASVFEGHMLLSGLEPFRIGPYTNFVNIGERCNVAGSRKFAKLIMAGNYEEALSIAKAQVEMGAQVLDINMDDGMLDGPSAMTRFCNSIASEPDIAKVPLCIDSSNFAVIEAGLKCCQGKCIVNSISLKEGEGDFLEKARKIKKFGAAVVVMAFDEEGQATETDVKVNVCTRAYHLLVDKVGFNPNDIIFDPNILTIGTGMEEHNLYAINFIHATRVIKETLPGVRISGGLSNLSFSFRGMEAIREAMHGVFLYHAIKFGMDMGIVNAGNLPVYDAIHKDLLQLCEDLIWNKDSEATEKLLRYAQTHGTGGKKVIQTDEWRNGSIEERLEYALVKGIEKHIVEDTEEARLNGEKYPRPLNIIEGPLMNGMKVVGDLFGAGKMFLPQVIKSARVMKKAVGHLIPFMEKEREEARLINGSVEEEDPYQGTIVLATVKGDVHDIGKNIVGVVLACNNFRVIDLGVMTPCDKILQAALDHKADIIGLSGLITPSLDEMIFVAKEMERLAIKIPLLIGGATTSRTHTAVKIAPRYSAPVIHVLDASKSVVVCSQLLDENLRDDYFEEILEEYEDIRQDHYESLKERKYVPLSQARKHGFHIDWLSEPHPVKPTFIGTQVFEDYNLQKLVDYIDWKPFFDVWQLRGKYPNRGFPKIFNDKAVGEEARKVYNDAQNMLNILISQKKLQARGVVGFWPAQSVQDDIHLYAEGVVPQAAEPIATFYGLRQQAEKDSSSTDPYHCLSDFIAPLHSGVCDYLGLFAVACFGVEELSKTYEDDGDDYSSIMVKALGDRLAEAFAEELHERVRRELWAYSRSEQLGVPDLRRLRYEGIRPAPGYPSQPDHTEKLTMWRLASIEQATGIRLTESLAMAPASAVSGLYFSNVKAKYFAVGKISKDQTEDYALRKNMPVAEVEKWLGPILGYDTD

[22] = Hexaglutamyl homologue inhibition activity against the Glycinamide ribonucleotide transformylase (GAR-TFase) was determined against hog liver; assay type: tissue-based, Sus scrofa
[23] = tested on: MCF7; experiment: Antitumor activity on MCF-7 breast adenocarcinoma cell lines; assay type: functional, cell-based; settings: Homo sapiens
[24] = tested on: MOLT-4; experiment: Antitumor activity on MOLT-4 T-cell acute lymphoblastic leukemia cell lines; assay type: functional, cell-based; settings: Homo sapiens
[25] = tested on: P388; experiment: Effect on P388 tumor cell growth in mice. The percentage of increased life span was determined administered 10 mg/kg schedule - t.i.d., days 1-4; assay type: functional; settings: Mus musculus, P388, intraduodenal
[26] = tested on: SW480; experiment: Antitumor activity on SW 480 colon adenocarcinoma cell lines; assay type: functional, cell-based; settings: Homo sapiens
[27] = tested on: CCRF-CEM; experiment: Antitumor activity on CCRF-CEM T-cell acute lymphoblastic leukemia cell lines; assay type: functional, cell-based; settings: Homo sapiens
[28] = biological target: T3, C-1-tetrahydrofolate synthase, cytoplasmic (Mus musculus); experiment: Evaluated for inhibitory activity on 5,10-methylenetetrahydrofolate dehydrogenase(L cell) at folate substrate concentration of 100 uM
[29] = tested on: P388; experiment: Effect on P388 tumor cell growth in mice. The percentage of increased life span was determined administered 7.5 mg/kg schedule - b.i.d., days 1-3; assay type: functional; settings: Mus musculus, P388, intraduodenal
[30] = tested on: P388; experiment: Effect on P388 tumor cell growth in mice. The percentage of increased life span was determined administered 5 mg/kg schedule - t.i.d., days 1-4; assay type: functional; settings: Mus musculus, P388, intraduodenal
[31] = Diglutamyl homologue inhibition activity against the Glycinamide ribonucleotide transformylase (GAR-TFase)was determined against L cell; assay type: cell-based, Mus musculus
[32] = tested on: P388; experiment: Effect on P388 tumor cell growth in mice. The percentage of increased life span was determined administered 75 mg/kg schedule - QD,days1,5,9; assay type: functional; settings: Mus musculus
[33] = Hexaglutamyl homologue inhibition activity against the Glycinamide ribonucleotide transformylase (GAR-TFase) was determined against L cell; assay type: cell-based, Mus musculus
[34] = tested on: A-427; experiment: Antitumor activity on A-427 lung carcinoma cell lines; assay type: functional, cell-based; settings: Homo sapiens
[35] = Inhibition activity against Glycinamide ribotide formyltransferase against L cell; assay type: cell-based
[36] = Triglutamyl homologue inhibition activity against Glycinamide ribonucleotide transformylase (GAR-TFase)was determined against L cell; assay type: cell-based, Mus musculus
[37] = tested on: L cells; experiment: Evaluated for reversal of L cell inhibition, where reversal of toxicity was evaluated by the addition of Thymidine Hypoxanthine; assay type: functional, Mus musculus, L929
[38] = tested on: Thymidylate synthase (Bos taurus); experiment: Evaluated for inhibitory activity on Thymidylate synthase(calf thymus) at folate substrate concentration of 200 uM
[39] = tested on: WiDr; experiment: Antitumor activity on WiDr colon adenocarcinoma cell lines; assay type: functional, cell-based; settings: Homo sapiens
[40] = Inhibition activity against Glycinamide ribonucleotide transformylase (GAR-TFase) against L cell; assay type: cell-based, Mus musculus

| Structure (SMILES) | IC50 [7] [nM] | IC50 [8] [nM] | Inhibition [9] [%] | Inhibition [10] [%] | Km [11] [µM] | Ratio [12] | Inhibition [13] [%] | Relative Vmax [14] [%] | inhibition [17] [%] | inhibition [18] [%] | inhibition [19] [%] | inhibition [20] [%] | inhibition [21] [%] | also measured |
| --- | --- | --- | --- | --- | --- | --- | --- | --- | --- | --- | --- | --- | --- | --- |
| Nc1nc(N)c(CCCNc2ccc(C(=O)N[C@@H](CCC(=O)O)C(=O)O)cc2)c(=O)[nH]1 | – | – | – | – | – | – | – | – | – | – | – | – | – | IC50 [1]: 700 nM; IC50 [2]: 200000 nM; IC50 [3]: 1900 nM; IC50 [4]: 700 nM; IC50 [5]: 94000 nM; IC50 [6]: 9400 nM |
| Nc1nc(N)c(CCCNc2ccc(C(=O)NCC(=O)O)cc2)c(O)n1 | > 100000 | > 100000 | – | – | – | – | – | – | – | – | – | – | – | – |
| CN(CCCc1c(N)nc(N)nc1O)c1ccc(C(=O)NC(CCC(=O)O)C(=O)O)cc1 (stereo not drawn) | 280 | 2000 | – | – | – | – | – | – | – | – | – | – | – | – |
| Nc1nc(N)c2nc(CNc3ccc(C(=O)N[C@@H](CCC(=O)O)C(=O)O)cc3)cnc2n1 [AMINOPTERIN] | 2.3 | 2 | 79 | 68 | 24.4 | 5.9 | 6 | 144 | – | – | – | – | – | Inhibition [15]: 0% |
| Nc1nc(N)c(CCCN(C=O)c2ccc(C(=O)NC(CCC(=O)O)C(=O)O)cc2)c(O)n1 (stereo not drawn) | – | 210 | – | – | – | – | – | – | 50 | 0 | 34 | 13 | 0 | inhibition [16]: 0% |
| Nc1nc(N)c(CCCNc2ccc(C(=O)N[C@@H](CCC(=O)O)C(=O)O)cc2)c(O)n1 | 88 | 110 | 0 | 59 | 6.7 | 14.9 | 6 | 100 | 0 | 0 | 5 | 7 | 0 | IC50 [22]: 260 nM; IC50 [23]: 37 nM; IC50 [24]: 58 nM; ILS at 10 mg/kg [25]: 80%; IC50 [26]: 50 nM; IC50 [27]: 47 nM; inhibition [28]: 0%; ILS at 7.5 mg/kg [29]: 40%; ILS at 5 mg/kg [30]: 22%; IC50 [31]: 400 nM; ILS at 75 mg/kg [32]: 0%; IC50 [33]: 80 nM; IC50 [34]: 43 nM; IC50 [35]: 2600 nM; IC50 [36]: 340 nM; Inhibition [37]: 0%; inhibition [38]: 0%; IC50 [39]: 45 nM; IC50 [40]: 3000 nM |
